Source: patent US6583149B1, “Method for the treatment or prevention of viral infection using nucleoside analogues” (BioChem Pharma Inc., priority 1999, dated 2003)
pIC50: −log10 of the molar value. Read-outs that look alike come from different tables or passages of the source.

Tests used:
HSV-1 = test: Herpes simplex virus plaque reduction assay in Vero34 cells; format: cell-based; conditions: Human alphaherpesvirus 1, 72 h, 3 days
Experimental: In 12 wells tissue culture dishes, 2×10^5 Vero34 cells were seeded in 2 mls of DMEM supplemented with 10% […]. The plate was incubated in 5% CO2/air at 37° C. overnight. The medium was removed and cells were inoculated with 200 PFU of HSV-1 diluted in a final volume of 0.5 ml DMEM supplemented with 2% FES. After adsorption at 37° C. for 1 hour, the viruses were removed and the cell monolayers were overlaid with 1 ml of DMEM-2% FES containing the test compound at final concentrations of 0.1, 1.0, 10, and 50 ug/ml. Acyclovir was used as a positive control. Uninfected and infected untreated monolayers were also included in the assay as controls. All compounds were tested in duplicates. After an incubation at 37° C. in 5% CO2/air for 3 days, cells were fixed with the addition of one volume of formaldehyde 8%/water for 30 min. The formaldehyde/medium was removed and the monolayers were stained with crystal violet 2%/ethanol 20% for few sec. The cells were rinsed with tap water and the monolayers were examined for the presence of plaques under a microscope.

Vero34 cells = format: cell-based; conditions: African green monkey, 48 h
Experimental: The CD50 value (cytotoxic dose at 50%) was assessed on virus-free control layers of cells to assess the toxicity of the compounds.
Flat bottom 96 well plates were plated with 5×1OE3 Vero-34 cells/well and 1×10E4 Hs-68 or Wi-38 cells/well respectively and incubated overnight at 37° C. and 5% CO2/air. After incubation, the supernatant medium was removed and replaced with test compound dilutions in 2% DMEM (150 ul). The cells were then incubated 48 hours in a 5% CO2 incubator at 37° C.
50 μl/well of 10 uCi/ml solution of [3H]-methyl thymidine (specific activity of approx. 2 Ci/mmol) was added to the culture medium and incubated overnight (18 hours) in a 5% CO2 incubator at 37° C.
Cells were then collected onto a fiberglass filter (Printed Filtermat A 1450-421 Wallac) with a Tomtec cell harvester. Suspended cells were collected directly onto filter while for adherent cells, the medium was first removed, then the cells washed with PBS and trypsinized for 2-3 minutes (50 μl trypsin/well) before collecting.
Filters were dried for 1 hour at 37-40° C. and then placed into bags (1450-microbeta #1450-432 Wallac) with 4.5 ml of Betascint and counts obtained with Microbeta 1450 Wallac (protocol 1).
(§1) The percent of cell proliferation was determined by comparison to the control (no test compound) and thereby establishing 50% inhibitory concentration is established.

HCMV = test: CMV plaque reduction assay in Hs68 cells; format: cell-based, human cytomegalovirus; conditions: 8 days, read-out: HCMV-1 IC50
Experimental: In 12-well tissue culture dishes, 1.5×10E5 or Hs68 cells (human […] fibroblast cell line) were plated per well with 2 ml of DMEM 10% fetal bovine serum and incubated in 5% CO2/air at 37° C. overnight or until cells were ready. The medium was then removed and the cells inoculated with 0.5 ml (containing 200 pfu/ml diluted in DMEM 2% FBS) of HCMV virus in each well. After adsorption at 37° C. for 2 hours, the virus was removed and cell monolayers were overlaid (1 ml) with DMEM 2% FBS containing test compounds at various concentrations. The cells were then incubated at 37° C. for 8 days, and then fixed with one volume (1 ml) of formaldehyde 8%/water or PBS 1× for 30 minutes. The formaldehyde solution was removed and the cell monolayers were stained with crystal violet 2%/EtOH 20% for a few seconds and then rinsed with water. Monolayers were examined for the presence of plaques under a microscope, the percentage of plaque reduction determined for each compound by comparison with the untreated cells (no test compound) and the 50% inhibitory concentration (IC50) established. DHPG was used as a positive control. Note: DMEM medium contained 1% glutamine and 1% pen/strep

Hs68 cells = test: Toxicity (CD50) reported with the CMV assay; format: cell-based, human; conditions: reported with HCMV assay
Experimental: Cells were then collected onto a fiberglass filter (Printed Filtermat A 1450-421 Wallac) with a Tomtec cell harvester.
as §1

RSV and CMV viruses = test: Case report: immune suppressed leukemia patient with RSV and CMV pneumonias in troxacitabine phase I study; format: in vivo, human; conditions: one elderly patient with relapsed resistant acute myeloid leukemia, also treated for RSV and CMV infections
Experimental: An elderly patient with relapsed resistant acute myeloid leukemia was entered in a troxacitabine (compound #1) as phase I Leukemia study. In the early part of the therapy, the patient, known to be immune suppressed, developed severe pneumonias. […] The patient to was maintained in the troxacitabine study and was treated for RSV and CMV viral infections.

| SMILES | pIC50 (HSV-1) | toxicity CD50 (Vero34 cells) | pIC50 (HCMV) | toxicity CD50 (Hs68 cells) | pIC50 (HCMV; Human betaherpesvirus 5, 192 h) | Clinical outcome of viral pneumonias (RSV and CMV) (RSV and CMV viruses) |
| --- | --- | --- | --- | --- | --- | --- |
| Nc1ncn([C@@H]2CO[C@H](CO)O2)c(=O)n1 [COMPOUND #3, (−)cis-2-Hydroxymethyl-4-(5′-azacytosin-1′-yl)-1,3-Dioxolane] | 3.63 to 4.33 |  |  |  |  |  |
| Nc1nc2c(ncn2COCCO)c(=O)[nH]1 [ACYCLOVIR, reference compound] | 4.88 | >13.3 µM |  |  |  |  |
| Nc1nc2c(ncn2COC(CO)CO)c(=O)[nH]1 [DHPG, reference compound] |  |  | 5.01 |  |  |  |
| Nc1ccn([C@@H]2CO[C@H](CO)O2)c(=O)n1 [COMPOUND #1, (−)-cis-2-Hydroxymethyl-4-(cytosin-1′-yl)-1,3-dioxolane] | 5.77 | >50 µM |  | >50 µM | 6.15 | did recover from their pneumonias |
